Data on two compounds can be found in US7855232B2, “Organoselenium compound for cancer chemoprevention” (LKT Laboratories, Inc., priority 2001, dated 2010).

SMILES strings stand for the structures. Marks after values point to notes of the source that are not given here.

Common to all, as to type: in vivo, Female A/J mice
Assay [1] has as its system UDP-Glucuronosyltransferase (UDP-GT). Put plainly: UDP-glucuronosyltransferase (UDP-GT) activity in liver microsomes of treated mice, o-aminophenol substrate. To be noted: for Ratio Test/con (UDP-GT): gavage; for UDP-GT activity (column head prints GSH conc.): gavage in corn oil. The protocol: Microsomal samples were assayed for enzymatic conjugation by modifying the procedure of Zakim et al., Methods of Biochemical Analysis, ed. David Glick, 21:1-37, (1973). using o-aminophenol as the substrate. The complete assay solution contains, in a total volume of 500 μl, 0.25 M phosphate buffer (pH 7.6), 0.002 M o-aminophenol, 0.05 M UDPGA, 0.125 M magnesium chloride and 100 μl microsomes. The mixture was incubated for 30 minutes. Reactions were stopped by the addition of 500 μl of TCA-sodium phosphate reagent. The precipitated protein was removed, 100 μl of 0.05% sodium nitrite was added to 950 μl of the supernatent solution and allowed to stand for 5 minutes. 100 μl of 0.5% ammonium sulfamate was added, after 5 minutes. 100 μl of 0.12% N-(-1-naphthyl)ethylenediamine dihydrochloride was added and incubated for 2 hours in the dark; and the difference in the optical density between the blanks and the samples were recorded at 555 nm in a Beckman model DU65 UV-VIS spectrophotometer. The UDP-GT activity was calculated using the extinction coefficient 29 mM-1 cm-1 for the coupled product.
Background: Liver microsomes are a subcellular fraction often used to study metabolism.

The subject of assay [2] is Glutathione S-Transferase. In words: Glutathione S-transferase (GST) activity in tissue cytosol of treated mice, CDNB substrate. Particulars: for Ratio Test/con (GST): gavage; for GST act.: gavage in corn oil. The protocol: The activity of cytosolic was assayed according to the method of Habig et al. using 1-chloro-2,4-dinitrobenzene (CDNB) as the substrate. Habig et al, J. Biol. Chem. 249:7130-7139 (1974). The complete solution contains, in a total volume of 2.0 mL, 0.1 M phosphate buffer, pH 6.5, 5 mM glutathione, 1 mM CDNB, and 20 μL of the cytosol. The reaction was monitored at 340 nm in a Beckman Model DU65 UV-VIS spectrophotometer. Assays were performed at 30° C. Complete assay mixture without the cytosolic enzyme was used as the reference blank. Data as analyzed by the Student's “t” test and P values were obtained in comparison to the control.

Assay [3] deals with GSH. In words: Glutathione (GSH) concentration in tissues of treated mice, HPLC. Particulars: for Ratio Test/con (GSH): gavage; for GSH conc.: gavage in corn oil. The protocol: GSH was quantitated by modification of the procedure Siller-Cepeda et al. Plant Cell Physiol. 32:1179-1185 (1991). Aliquots of tissue homogenates were mixed with equal volumes of 20% PCA containing 2 mM BPDS. Vortex, centrifuge at 7800×g for 15 minutes at 4° C. and 250 μl supernatant transferred into a microfuge tube containing 25 μl of γ-glu-glu as internal standard. The samples were carboxymethylated with 25 μl of 100 mM iodoacetic acid dissolved in 0.2 mM m-cresol purple sodium salt solution. The pH of the solution was adjusted to 9-10 by adding 350 μl of KOH (2M)-KHCO3 (2.4 M) mixture and incubated in the dark for 15 minutes. After carboxymethylation, the samples were derivatized with 500 μl of 1% dinitrofluorobenzene (DNFB) and kept in the dark at 4° C. overnight. The samples were centrifuged at 13,000×g for 15 minutes, filtered through 0.2 μm filter, and were analyzed with a SHIMADZU two-pump gradient HPLC system. Samples were injected by a SHIMADZU SIL-10AV Autoinjector onto a Varian 3-aminopropyl MICROSORB-MV column (4.6×250 mm) operated at ambient temperature with a flow rate of 1 ml/min. Absorbance of the dinitrophenyl derivatives was monitored at 365 nm. The amount of GSH was calculated from a standard curve using γ-glu-glu as internal standard.

The mark [4] stands for this setting: colon, dose 0.02 mmol/Kg body weight.
The mark [5] stands for this setting: colon, dose 0.04 mmol/Kg body weight.
[6] abbreviates: forestomach, dose 0.02 mmol/Kg body weight.
Where [7] appears, read: forestomach, dose 0.04 mmol/Kg body weight.
Where [8] appears, read: liver, dose 0.02 mmol/Kg body weight.
The mark [9] stands for this setting: liver, dose 0.04 mmol/Kg body weight.
Where [10] appears, read: lung, dose 0.02 mmol/Kg body weight.
Where [11] appears, read: lung, dose 0.04 mmol/Kg body weight.
[12] abbreviates: small intestinal mucosa, dose 0.02 mmol/Kg body weight.
Where [13] appears, read: small intestinal mucosa, dose 0.04 mmol/Kg body weight.

`N#C[Se]Cc1ccc(C[Se]C#N)[se]1` [(4) SDMSC, selenophenyl-2,5-di-methylene selenocyanate]: the “Ratio Test/con (UDP-GT)” value in assay [1] (dose 0.02 mmol/Kg body weight) was 2.30; in assay [1] (dose 0.02 mmol/Kg body weight, listed as SDMSC 4), 2.67; in assay [1] (dose 0.04 mmol/Kg body weight) it was 2.43. Besides, the “UDP-GT activity (column head prints GSH conc.)” value was 10.17 ± 2.37 ^c nmol/min/mg protein in assay [1] (dose 0.02 mmol/Kg body weight) and 10.75 ± 2.04 ^d nmol/min/mg protein in assay [1] (dose 0.04 mmol/Kg body weight). For the same compound, the “Ratio Test/con (GST)” value in assay [2] (setting [4]) was 1.13; in assay [2] (setting [5]), 1.10; in assay [2] (setting [6]), 1.35; in assay [2] (setting [7]), 1.21; in assay [2] (setting [8]), 1.06; in assay [2] (setting [9]), 1.50. For the same compound, the “Ratio Test/con (GST)” value in assay [2] (setting [10]) turned out to be 1.23; in assay [2] (setting [11]), 1.17; in assay [2] (setting [12]) it was 1.00; in assay [2] (setting [13]) it was 1.06. The GST act. is recorded as 0.45 ± 0.02 ^g μmol/min mg protein in assay [2] (setting [4]); 0.44 ± 0.04 μmol/min mg protein in assay [2] (setting [5]); 1.05 ± 0.28 μmol/min mg protein in assay [2] (setting [6]); 0.94 ± 0.18 μmol/min mg protein in assay [2] (setting [7]); 1.20 ± 0.11 ^g μmol/min mg protein in assay [2] (setting [8]); 1.69 ± 0.18 ^e μmol/min mg protein in assay [2] (setting [9]). Moreover, the GST act. in assay [2] (setting [10]) is 0.58 ± 0.08 μmol/min mg protein; in assay [2] (setting [11]) it was 0.55 ± 0.07 μmol/min mg protein; in assay [2] (setting [12]), 0.34 ± 0.01 μmol/min mg protein; in assay [2] (setting [13]) it was 0.36 ± 0.02 μmol/min mg protein. For the same compound, the “Ratio Test/con (GSH)” value in assay [3] (setting [8]) worked out at 0.93; in assay [3] (setting [9]), 1.39. In addition, the GSH conc. in assay [3] (setting [8]) is listed as 3.58 ± 1.86 μmol/gm tissue weight; in assay [3] (setting [9]), 5.34 ± 1.36 μmol/gm tissue weight.

Turning to `N#C[Se]Cc1ccc(C[Se]C#N)cc1` [p-XSC, 1,4-phenylenebis(methylene)selenocyanate, reference compound], the “Ratio Test/con (UDP-GT)” value in assay [1] (dose 0.04 mmol/Kg body weight) stood at 1.88. The “UDP-GT activity (column head prints GSH conc.)” value in assay [1] (dose 0.04 mmol/Kg body weight) was 7.60 ± 2.47 ^d nmol/min/mg protein. The “Ratio Test/con (GST)” value in assay [2] (setting [4]) was found to be 1.10; in assay [2] (setting [6]), 0.88; in assay [2] (setting [8]), 1.28; in assay [2] (setting [10]), 1.41; in assay [2] (setting [12]), 0.95. For the same compound, the GST act. in assay [2] (setting [4]) is 0.72 ± 0.07 μmol/min mg protein; in assay [2] (setting [6]) it was 0.98 ± 0.27 μmol/min mg protein; in assay [2] (setting [8]) it was 1.64 ± 0.45 μmol/min mg protein; in assay [2] (setting [10]) it was 0.48 ± 0.13 μmol/min mg protein; in assay [2] (setting [12]), 0.21 ± 0.06 μmol/min mg protein. Besides, in assay [2] (tissues of A/J mice), the “induction of GST activity (in words)” value is listed as “failed to induce a significant increase”. Also, the “Ratio Test/con (GSH)” value in assay [3] (setting [9]) is given as 0.99; in assay [3] (setting [13]), 0.91. Further, the figures for the GSH conc. in assay [3] (setting [9]) and in assay [3] (setting [13]) were 3.50 ± 0.75 μmol/gm tissue weight and 1.93 ± 0.54 μmol/gm tissue weight, respectively. Besides, the “increase of GSH concentration (in words)” value in assay [3] (tissues of A/J mice) was “failed to induce a significant increase”.
